Measured values taken from patent US7402611B1, “Use of amino acids for making medicines for treating to insulin-resistance” (Innodia Inc., priority 1999, dated 2008).
“Also recorded” adds a separate entry of the source.

Tests used:
insulin receptor (IR) = assay: Phosphorylation of the insulin receptor in the liver of normal rats; type: in vivo; details: normal rat liver, single injection 200 μg/kg I.P.; comparable to insulin
IRS-1 = assay: Phosphorylation of IRS-1 in the liver of normal rats; type: in vivo; details: normal rat liver, single injection 200 μg/kg I.P.; comparable to insulin
PI 3-kinase [1] = assay: PI 3-kinase activity of the liver (anti-IRS-1 immunoprecipitates), normal rats; type: in vivo, rat; details: normal Wistar rats, i.p., insulin 100 U/kg, 4-OH-Ile 18 mg/kg, 15 min after injection; p<0.05
Experimental: (§1) The PI 3-kinase activity was measured on immunoprecipitates carried out with the anti-IRS-1 antibody. This made it possible to determine the enzymatic activity associated with the action of insulin and to compare it to the action induced by 4-OH-Ile. Normal male Wistar rats (IFFA CREDO strain, France) received, via intraperitoneal injection, either ordinary insulin on its own (100 U/kg) or 4-OH-Ile on its own (18 mg/kg), or insulin combined with 4-OH-Ile in the same doses. The control rats received sodium chloride at 9‰ via intraperitoneal route. Fifteen minutes after the injection, the animals were sacrificed and the peripheral tissues (liver, muscle) were immediately removed and frozen in liquid nitrogen. […] After solubilisation, the supernatants are immunoprecipitated with anti-IRS-1 and the PI 3-kinase activity is measured in the immunoprecipitate. […] The product of the reaction is subjected to thin layer chromatography (TLC plate) and the levels of phosphorylation of PI are measured by a STORM phospho-imager (Molecular Dynamics). The activity is expressed in arbitrary units given by the apparatus (conversion of the radioactivity to luminescence by means of a laser beam).

insulin receptor = assay: Bonding of insulin on its receptor in hepatic LMH cell lines; type: binding; details: LMH cells (chicken hepatocarcinoma), competition with insulin
Source text: FIG. 4, the bonding of insulin on its receptor in hepatic LMH cell lines, In FIG. 4 the comparative results concerning the bonding of isoleucine and 4-OH-Ile are given. The LMH cells used in these trials are from chicken hepatocarcinoma (Kawaguchi T. et al., Cancer Res., 47, 4460, 1987).

PI 3-kinase [2] = assay: PI 3-kinase activity of muscle (anti-IRS-1 immunoprecipitates), normal rats; type: in vivo, rat; details: normal Wistar rats, i.p., insulin 100 U/kg, 4-OH-Ile 18 mg/kg, 15 min after injection
Experimental: as §1

[3] = Basal insulinemia and glycemia during chronic administration in type 2 diabetic rats; type: in vivo, rat
Experimental: The beneficial effect of 4-hydroxyisoleucine against relative hyperinsulinemia has been researched in vivo during chronic administration (for one month) of plant amino acid (25 mg/kg/day, by intraperitoneal route) on rats made non insulin dependant diabetic (type 2 diabetes) by joint injections of nicotinamide and streptozotocin (Masiello et al., Diabetes, 47, 224, 1998). Regular blood samples are taken from the caudal vein of the rats made it possible to evaluate the level of plasmatic insulin using a radio-immunological method (Herbert et al., J. Clin. Endocr., 25. 1375, 1965), 15 hours after injection of the product which took place at 5.30 pm. In these same samples, the plasmatic glucose level was measured using an enzymatic method (Trinder P., J. Clin. Pathol. 22, 158, 1969).

PI 3-kinase [4] = assay: PI 3-kinase activity of the liver in type 2 diabetic rats; type: in vivo, rat; details: liver of rats with type 2 diabetes; p<0.05 for 4-OH-Ile
Experimental: (§2) For the determination of the PI 3-kinase activity, the tissues are ground in a buffer containing protease and phosphatase inhibitors as well as a solubilising agent (Triton), as described by Taouis et al., J. Biol. Chem., 269, 14912, 1994. After solubilisation, the supernatants are immunoprecipitated with anti-IRS-1 and the PI 3-kinase activity is measured in the immunoprecipitate. In fact, the reaction is initiated by the addition of an artificial substrate of the enzyme: phosphatidylinositol (PI) and (^33P) gamma ATP. The product of the reaction is subjected to thin layer chromatography (TLC plate) and the levels of phosphorylation of PI are measured by a STORM phospho-imager (Molecular Dynamics). The activity is expressed in arbitrary units given by the apparatus (conversion of the radioactivity to luminescence by means of a laser beam). Comparison of the Effects of Insulin and Those of 4-OH-Ile on the PI 3-Kinase Activity of the Muscle and the Liver Removed from Rats with Type 2 Diabetes (Masiello et al., Diabetes 47, 224, 1998)

PI 3-kinase [5] = assay: PI 3-kinase activity of the muscle in type 2 diabetic rats; type: in vivo, rat; details: muscle of rats with type 2 diabetes; p<0.01 for 4-OH-Ile
Experimental: as §2

PI 3-kinase [6] = assay: Basal PI 3-kinase activity of the liver of obese Zucker rats (fa/fa) after chronic administration; type: in vivo, rat; details: 50 mg/kg i.p. for 4 weeks, sacrificed 17 hours after last administration
Experimental: as §2, with “During chronic administration for 4 weeks of 4-OH-Ile (50 mg/kg by intraperitoneal route) in obese Zucker rats (fa/fa), the PI 3-kinase activity” for “Comparison”, “liver was measured at” for “Effects of Insulin and Those of 4-OH-Ile on”, “end” for “PI 3-Kinase Activity”, “treatment.” for “Muscle and the Liver Removed from Rats with Type 2 Diabetes (Masiello et al., Diabetes 47, 224, 1998)”

[7] = tested on: PI 3-kinase associated with the insulin receptor; assay: PI 3-kinase activity associated with the insulin receptor in the liver of a normal rat; type: in vivo; details: 18 mg/kg I.P., p<0.05
Experimental: as §2, with “beam). The PI 3-kinase activities” for “beam). Comparison”, “the PDGF receptor and” for “the Effects”, “of the insulin receptor in the presence or the absence” for “of Insulin and Those”, “4-OH-Ile (18 mg/kg I.P.) were compared following” for “4-OH-Ile on”, “the protocol already described.” for “the PI 3-Kinase Activity of the Muscle and the Liver Removed from Rats with Type 2 Diabetes (Masiello et al., Diabetes 47, 224, 1998)”

[8] = tested on: phosphatase activity associated with IRS-1; assay: Phosphatase activity associated with IRS-1 in the liver of a normal rat; type: biochemical; details: 200 μmol/1, p<0.05
Experimental: The phosphatase activity was measured on the immunoprecipitates carried out with the anti-IRS-1 antibody and insulin anti-receptor. The solubilisation protocol is the same as that for PI 3-kinase following the methodology described by Taouis et al. (J. Biol. Chem., 269, 14912, 1994). After immunoprecipitation, the phosphatase activity was measured according to the method described by Chen. et al. (J. Biol. Chem., 272, 8026, 1997). With the aim of better locating the action site of the 4-OH-Ile, its impact on phosphatase activity was studied. The phosphatase activity associated with IRS-1 was measured.

Water solubility = type: physicochemical

CC(O)C(C)C(N)C(=O)O (stereo not drawn) [4-OH-Ile, 4-hydroxyisoleucine]
activation (phosphorylation) of the insulin receptor (IR) (insulin receptor (IR)): induces the activation | activation (phosphorylation) of IRS-1 (IRS-1): induces the activation | hepatic PI 3-kinase activity (PI 3-kinase [1]): significantly stimulate | bonding to the insulin membrane receptor of the hepatocyte (insulin receptor): has no bond with this receptor; also recorded: does not recognise the insulin receptor | PI 3-kinase activity of muscle (PI 3-kinase [2]): has a comparable effect | insulinemia (plasmatic insulin) ([3]; type 2 diabetic rats (nicotinamide/streptozotocin), 25 mg/kg/day i.p. for one month, 15 hours after injection): significantly lowering | glycemia ([3]; type 2 diabetic rats, 25 mg/kg/day i.p., at the end of the treatment): slight reduction | plasmatic insulin after cessation of the treatment ([3]; type 2 diabetic rats, after cessation of 25 mg/kg/day i.p. treatment): again rises to regain values close to those observed before the treatment | hepatic PI 3-kinase activity (PI 3-kinase [4]): the same effect as insulin with the same intensity; also recorded: significantly stimulates | muscular PI 3-kinase activity (PI 3-kinase [5]): the same effect as insulin with the same intensity; also recorded: significantly stimulates | basal activity of PI 3-kinase of the liver (PI 3-kinase [6]): is increased | PI 3-kinase activity associated with the insulin receptor [7]: the only one increased | phosphatase activity associated with IRS-1 [8]: significantly inhibits | solubility in water (Water solubility): hydrosoluble

insulin [reference compound]
hepatic PI 3-kinase activity (PI 3-kinase [1]): significantly stimulate | PI 3-kinase activity of muscle (PI 3-kinase [2]): clearly stimulates | hepatic PI 3-kinase activity (PI 3-kinase [4]): activates | muscular PI 3-kinase activity (PI 3-kinase [5]): activates
